Assay results as given in patent US12264134B2 (Merck Sharp & Dohme LLC, priority 2018, dated 2025).

Target: IDO1 (Homo sapiens, UniProt P14902)
Assay: IDO1 Cellular Assay in HeLa Cells Stimulated with IFNγ
Assay type: cell-based
Settings: read-out: HeLa Cell Potency, IC50

IDO1, sequence (P14902 whole entry): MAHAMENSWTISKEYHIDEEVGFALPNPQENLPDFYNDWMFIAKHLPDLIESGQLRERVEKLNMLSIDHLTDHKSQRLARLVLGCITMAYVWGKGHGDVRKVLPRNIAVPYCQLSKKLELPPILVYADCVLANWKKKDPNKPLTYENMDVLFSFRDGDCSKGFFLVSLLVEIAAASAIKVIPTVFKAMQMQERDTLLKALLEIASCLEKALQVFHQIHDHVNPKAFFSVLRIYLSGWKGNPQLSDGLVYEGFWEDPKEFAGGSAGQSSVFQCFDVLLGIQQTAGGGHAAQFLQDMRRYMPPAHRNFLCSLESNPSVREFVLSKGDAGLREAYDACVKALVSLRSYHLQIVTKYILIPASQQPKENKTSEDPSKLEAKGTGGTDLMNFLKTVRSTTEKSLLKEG

Compound	IC50 [nM]
Cc1c(Cl)cccc1N1CCN(C(=O)Cn2nc(C(=O)N3CCC(O)CC3)c3c2CCC(F)C3)CC1 (centres unmarked) [Example 372, 1-(4-(3-chloro-2-methylphenyl)piperazin-1-yl)-2-(5-fluoro-3-(4-hydroxypiperidine-1-carbonyl)-4,5,6,7-tetrahydro-1H-indazol-1-yl)ethan-1-one]	2.32
Cc1cccc(N2CCN(C(=O)Cn3nc(C(=O)N4C[C@@H](C)O[C@@H](C)C4)c4c3CCCCC4)CC2)c1C [Example 410, 2-(3-((2R,6S)-2,6-dimethylmorpholine-4-carbonyl)-5,6,7,8-tetrahydrocyclohepta[c]pyrazol-1(4H)-yl)-1-(4-(2,3-dimethylphenyl)piperazin-1-yl)ethanone]	4.97
Cc1cccc(N2CCN(C(=O)Cn3nc(C(=O)N4CCO[C@H](CO)C4)c4c3CCCC4)CC2)c1C [Example 474, (S)-1-(4-(2,3-dimethylphenyl)piperazin-1-yl)-2-(3-(2-(hydroxymethyl)morpholine-4-carbonyl)-4,5,6,7-tetrahydro-1H-indazol-1-yl)ethanone]	4.21
C[C@@H]1CN(C(=O)c2nn(CC(=O)N3CCN(c4ccc(Cl)c(F)c4)CC3)c3c2CCC3)C[C@H](C)O1 [Example 54, 1-[4-(4-chloro-3-fluorophenyl)piperazin-1-yl]-2-{3-[(2R,6S)-2,6-dimethylmorpholine-4-carbonyl]-5,6-dihydrocyclopenta[c]pyrazol-1(4H)-yl}ethan-1-one]	57.1
C[C@@H]1CN(C(=O)c2nn(CC(=O)N3CCN(c4ccc(F)c(F)c4)CC3)c3c2CCC3)C[C@H](C)O1 [Example 45, 1-[4-(3,4-difluorophenyl)piperazin-1-yl]-2-{3-[(2R,6S)-2,6-dimethylmorpholine-4-carbonyl]-5,6-dihydrocyclopenta[c]pryazol-1(4H)-yl}ethan-1-one]	233
Cc1cccc(N2CCN(C(=O)Cn3nc(C(=O)N4CCC(F)(CN)CC4)c4c3CCC4)CC2)c1C [Example 178, 2-{3-[4-(aminomethyl)-4-fluoropiperidine-1-carbonyl]-5,6-dihydrocyclopenta[c]pyrazol-1(4H)-yl}-1-[4-(2,3-dimethylphenyl)piperazin-1-yl]ethan-1-one]	16.4
COc1cc(F)cc(N2CCN(C(=O)Cn3nc(C(=O)N4C[C@@H](C)O[C@@H](C)C4)c4c3CCC4)CC2)c1 [Example 36, 2-{3-[(2R,6S)-2,6-dimethylmorpholine-4-carbonyl]-5,6-dihydrocyclopenta[c]pyrazol-1(4H)-yl}-1-[4-(3-fluoro-5-methoxyphenyl)piperazin-1-yl]ethan-1-one]	55.5

Further compounds by falling IC50, results first:

IC50 [nM]	Compound
496	Cc1cccc(N2CCN(C(=O)Cn3nc(C(=O)N4CC[C@H](O)[C@H](F)C4)c4c3C(O)CCC4)CC2)c1C (single isomer, unassigned) [Example 25]
341	Cc1cccc(N2CCN(C(=O)Cn3nc(C(=O)N4CC[C@H](O)[C@@H](F)C4)c4c3CC(O)C4)CC2)c1C (single isomer, unassigned) [Example 415]
101	Cc1cccc(N2CCN(C(=O)Cn3nc(C(=O)N4CCC(NC(=O)NN)CC4)c4c3C[C@H]3C[C@@H]43)CC2)c1C [Example 242, N-{1-[(3bR,4aR)-1-{2-[4-(2,3-dimethylphenyl)piperazin-1-yl]-2-oxoethyl}-3b,4,4a,5-tetrahydro-1H-cyclopropa[3,4]cyclopenta[1,2-c]pyrazole-3-carbonyl]piperidin-4-yl}hydrazinecarboxamide]
79.1	Cc1cccc(N2CCN(C(=O)Cn3nc(C(=O)N4CC[C@H]5[C@@H](C4)NC(=O)N5C)c4c3C[C@H]3C[C@@H]43)CC2)c1C [Example 237, (3aR,7aS)-5-[(3bR,4aR)-1-{2-[4-(2,3-dimethylphenyl)piperazin-1-yl]-2-oxoethyl}-3b,4,4a,5-tetrahydro-1H-cyclopropa[3,4]cyclopenta[1,2-c]pyrazole-3-carbonyl]-1-methyloctahydro-2H-imidazo[4,5-c]pyridin-2-one]
